Assays:
Assay type in all cases: biochemical
HER4 = HER4 (Homo sapiens, UniProt Q15303); assay: Kinase profiling HER4; conditions: for residual kinase activity, HER4: 100 micromolar inhibitor concentration, 100 is no change
From the text: (§1) Any value less that 25 is considered to be highly significant inhibition.

MKK6 = biological target: T1, MKK6 (Homo sapiens, UniProt P52564); assay: Kinase profiling MKK6; conditions: for residual kinase activity, MKK6: 100 micromolar inhibitor concentration, 100 is no change
T1 sequence (P52564 1-334): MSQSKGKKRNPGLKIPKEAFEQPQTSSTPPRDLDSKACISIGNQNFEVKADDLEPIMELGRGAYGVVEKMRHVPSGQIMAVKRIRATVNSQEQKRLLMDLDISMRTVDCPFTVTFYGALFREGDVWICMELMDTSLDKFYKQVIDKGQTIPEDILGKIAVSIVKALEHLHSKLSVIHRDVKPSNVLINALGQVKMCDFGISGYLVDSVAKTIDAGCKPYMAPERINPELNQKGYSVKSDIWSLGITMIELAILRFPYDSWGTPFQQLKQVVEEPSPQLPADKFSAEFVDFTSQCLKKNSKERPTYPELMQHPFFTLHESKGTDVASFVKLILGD
From the text: as §1

NEK6 = NEK6 (Homo sapiens, UniProt Q9HC98); assay: Kinase profiling NEK6; conditions: for residual kinase activity, NEK6: 100 micromolar inhibitor concentration, 100 is no change
From the text: as §1

OSR1 = OSR1 (Homo sapiens, UniProt O95747); assay: Kinase profiling OSR1; conditions: for residual kinase activity, OSR1: 100 micromolar inhibitor concentration, 100 is no change
From the text: as §1

STK33 = STK33 (Homo sapiens, UniProt Q9BYT3); assay: Kinase profiling STK33; conditions: for residual kinase activity, STK33: 100 micromolar inhibitor concentration, 100 is no change
Chain of STK33 (Q9BYT3 whole entry, species assumed): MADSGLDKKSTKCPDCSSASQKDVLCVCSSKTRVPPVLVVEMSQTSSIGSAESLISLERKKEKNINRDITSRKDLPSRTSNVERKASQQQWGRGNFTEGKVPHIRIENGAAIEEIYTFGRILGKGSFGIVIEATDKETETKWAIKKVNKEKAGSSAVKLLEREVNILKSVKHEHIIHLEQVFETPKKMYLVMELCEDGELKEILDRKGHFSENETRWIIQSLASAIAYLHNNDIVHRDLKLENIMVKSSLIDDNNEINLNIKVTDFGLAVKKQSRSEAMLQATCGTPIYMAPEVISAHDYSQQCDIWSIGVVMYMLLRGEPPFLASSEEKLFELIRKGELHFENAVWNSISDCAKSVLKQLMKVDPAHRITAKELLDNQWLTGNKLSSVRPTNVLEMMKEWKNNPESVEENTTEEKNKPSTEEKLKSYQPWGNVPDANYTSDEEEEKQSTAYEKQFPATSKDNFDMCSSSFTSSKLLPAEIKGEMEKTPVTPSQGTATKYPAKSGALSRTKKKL
From the text: as §1

PAK2 = PAK2 (Homo sapiens, UniProt Q13177); assay: Kinase profiling PAK2; conditions: for residual kinase activity, PAK2: 100 micromolar inhibitor concentration, 100 is no change
Chain of PAK2 (Q13177 whole entry, species assumed): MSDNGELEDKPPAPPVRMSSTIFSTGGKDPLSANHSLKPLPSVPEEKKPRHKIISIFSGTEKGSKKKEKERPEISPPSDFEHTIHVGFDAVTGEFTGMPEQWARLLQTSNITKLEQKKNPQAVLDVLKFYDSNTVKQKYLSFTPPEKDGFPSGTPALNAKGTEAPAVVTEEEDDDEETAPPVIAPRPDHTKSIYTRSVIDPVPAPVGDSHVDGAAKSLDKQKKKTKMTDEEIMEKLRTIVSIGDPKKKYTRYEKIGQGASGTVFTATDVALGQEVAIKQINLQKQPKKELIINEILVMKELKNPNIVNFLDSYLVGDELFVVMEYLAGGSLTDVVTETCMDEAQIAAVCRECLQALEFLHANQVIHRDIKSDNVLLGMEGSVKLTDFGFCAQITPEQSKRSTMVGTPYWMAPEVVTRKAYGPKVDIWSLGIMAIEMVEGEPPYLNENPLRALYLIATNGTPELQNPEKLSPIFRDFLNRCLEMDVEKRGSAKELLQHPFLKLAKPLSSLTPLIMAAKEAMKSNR
From the text: as §1

PKCγ = PKCγ (Homo sapiens, UniProt P05129); assay: Kinase profiling PKCγ; conditions: for residual kinase activity, PKCγ: 100 micromolar inhibitor concentration, 100 is no change
From the text: as §1

PRK2 = PRK2 (Homo sapiens, UniProt Q16513); assay: Kinase profiling PRK2; conditions: for residual kinase activity, PRK2: 100 micromolar inhibitor concentration, 100 is no change
Chain of PRK2 (Q16513 whole entry, species assumed): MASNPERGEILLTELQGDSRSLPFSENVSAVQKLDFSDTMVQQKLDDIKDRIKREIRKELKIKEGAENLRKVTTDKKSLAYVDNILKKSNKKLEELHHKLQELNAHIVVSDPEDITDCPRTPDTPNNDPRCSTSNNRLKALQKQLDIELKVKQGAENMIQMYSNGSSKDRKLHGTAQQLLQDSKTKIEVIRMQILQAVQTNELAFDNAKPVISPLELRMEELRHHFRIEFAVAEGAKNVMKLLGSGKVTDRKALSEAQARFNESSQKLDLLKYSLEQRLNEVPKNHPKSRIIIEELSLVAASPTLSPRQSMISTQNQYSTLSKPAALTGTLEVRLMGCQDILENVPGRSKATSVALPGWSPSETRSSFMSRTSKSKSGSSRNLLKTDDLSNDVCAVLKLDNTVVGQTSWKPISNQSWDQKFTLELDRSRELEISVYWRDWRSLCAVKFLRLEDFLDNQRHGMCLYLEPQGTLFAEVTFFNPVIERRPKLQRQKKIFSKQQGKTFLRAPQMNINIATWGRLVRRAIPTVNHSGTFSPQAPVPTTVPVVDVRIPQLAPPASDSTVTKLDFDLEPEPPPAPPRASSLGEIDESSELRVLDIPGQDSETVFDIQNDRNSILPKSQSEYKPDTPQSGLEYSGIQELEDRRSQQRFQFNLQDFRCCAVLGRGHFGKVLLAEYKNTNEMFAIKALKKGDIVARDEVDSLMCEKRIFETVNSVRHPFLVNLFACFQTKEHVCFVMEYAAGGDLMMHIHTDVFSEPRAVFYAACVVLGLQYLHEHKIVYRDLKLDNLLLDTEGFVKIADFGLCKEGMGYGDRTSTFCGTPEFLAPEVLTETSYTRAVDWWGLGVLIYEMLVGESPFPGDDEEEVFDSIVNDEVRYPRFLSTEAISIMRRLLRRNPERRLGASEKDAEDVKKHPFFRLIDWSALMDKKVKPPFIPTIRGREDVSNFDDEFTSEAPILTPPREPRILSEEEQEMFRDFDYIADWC
From the text: as §1

PKD1 = biological target: T2, PKD1 (Homo sapiens, UniProt Q15139); assay: Kinase profiling PKD1; conditions: for residual kinase activity, PKD1: 100 micromolar inhibitor concentration, 100 is no change
T2 sequence (Q15139 1-912): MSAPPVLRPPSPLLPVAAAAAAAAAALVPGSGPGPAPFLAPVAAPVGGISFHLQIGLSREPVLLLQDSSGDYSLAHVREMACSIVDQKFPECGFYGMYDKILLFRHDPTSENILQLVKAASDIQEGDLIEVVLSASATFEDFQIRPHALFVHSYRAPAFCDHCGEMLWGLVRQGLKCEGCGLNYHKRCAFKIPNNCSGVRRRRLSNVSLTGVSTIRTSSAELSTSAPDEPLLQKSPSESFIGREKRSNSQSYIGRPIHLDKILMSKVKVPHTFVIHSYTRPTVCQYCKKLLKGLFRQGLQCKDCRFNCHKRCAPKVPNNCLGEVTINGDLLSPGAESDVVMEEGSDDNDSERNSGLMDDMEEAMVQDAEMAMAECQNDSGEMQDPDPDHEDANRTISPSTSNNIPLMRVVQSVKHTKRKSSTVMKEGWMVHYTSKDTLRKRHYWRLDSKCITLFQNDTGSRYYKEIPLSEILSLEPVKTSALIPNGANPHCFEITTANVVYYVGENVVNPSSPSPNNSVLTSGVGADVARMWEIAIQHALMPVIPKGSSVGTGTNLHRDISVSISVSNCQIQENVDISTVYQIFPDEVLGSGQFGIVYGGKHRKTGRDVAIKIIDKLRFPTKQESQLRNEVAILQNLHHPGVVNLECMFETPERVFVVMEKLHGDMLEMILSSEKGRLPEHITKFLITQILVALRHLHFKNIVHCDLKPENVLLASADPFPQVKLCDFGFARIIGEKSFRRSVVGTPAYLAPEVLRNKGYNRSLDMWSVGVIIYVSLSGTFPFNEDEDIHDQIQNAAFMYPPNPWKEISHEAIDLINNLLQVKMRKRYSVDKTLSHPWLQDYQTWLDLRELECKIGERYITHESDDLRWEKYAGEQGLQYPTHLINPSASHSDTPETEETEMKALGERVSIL
From the text: as §1

AMPK = assay: Kinase profiling AMPK
From the text: as §1

MST2 = biological target: T3, MST2 (Homo sapiens, UniProt Q13188); assay: Kinase profiling MST2; conditions: for residual kinase activity, MST2: 100 micromolar inhibitor concentration, 100 is no change
T3 sequence (Q13188 1-491): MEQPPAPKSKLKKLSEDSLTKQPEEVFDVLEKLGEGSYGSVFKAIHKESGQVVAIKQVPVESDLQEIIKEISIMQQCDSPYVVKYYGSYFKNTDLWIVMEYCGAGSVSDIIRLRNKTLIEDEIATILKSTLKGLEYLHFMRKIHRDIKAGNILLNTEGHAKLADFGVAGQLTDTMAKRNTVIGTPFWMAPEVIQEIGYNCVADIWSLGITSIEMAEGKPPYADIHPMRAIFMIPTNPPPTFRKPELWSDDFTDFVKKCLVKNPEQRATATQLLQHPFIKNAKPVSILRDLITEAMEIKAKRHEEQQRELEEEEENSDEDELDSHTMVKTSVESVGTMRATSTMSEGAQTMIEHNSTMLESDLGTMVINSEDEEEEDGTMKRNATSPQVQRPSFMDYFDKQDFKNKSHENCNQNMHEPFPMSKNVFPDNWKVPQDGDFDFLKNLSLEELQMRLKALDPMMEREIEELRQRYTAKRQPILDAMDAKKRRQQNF
From the text: as §1

ROCK 2 = ROCK 2 (Homo sapiens, UniProt O75116); assay: Kinase profiling ROCK 2; conditions: for residual kinase activity, ROCK 2: 100 micromolar inhibitor concentration, 100 is no change
Chain of ROCK 2 (O75116 whole entry, species assumed): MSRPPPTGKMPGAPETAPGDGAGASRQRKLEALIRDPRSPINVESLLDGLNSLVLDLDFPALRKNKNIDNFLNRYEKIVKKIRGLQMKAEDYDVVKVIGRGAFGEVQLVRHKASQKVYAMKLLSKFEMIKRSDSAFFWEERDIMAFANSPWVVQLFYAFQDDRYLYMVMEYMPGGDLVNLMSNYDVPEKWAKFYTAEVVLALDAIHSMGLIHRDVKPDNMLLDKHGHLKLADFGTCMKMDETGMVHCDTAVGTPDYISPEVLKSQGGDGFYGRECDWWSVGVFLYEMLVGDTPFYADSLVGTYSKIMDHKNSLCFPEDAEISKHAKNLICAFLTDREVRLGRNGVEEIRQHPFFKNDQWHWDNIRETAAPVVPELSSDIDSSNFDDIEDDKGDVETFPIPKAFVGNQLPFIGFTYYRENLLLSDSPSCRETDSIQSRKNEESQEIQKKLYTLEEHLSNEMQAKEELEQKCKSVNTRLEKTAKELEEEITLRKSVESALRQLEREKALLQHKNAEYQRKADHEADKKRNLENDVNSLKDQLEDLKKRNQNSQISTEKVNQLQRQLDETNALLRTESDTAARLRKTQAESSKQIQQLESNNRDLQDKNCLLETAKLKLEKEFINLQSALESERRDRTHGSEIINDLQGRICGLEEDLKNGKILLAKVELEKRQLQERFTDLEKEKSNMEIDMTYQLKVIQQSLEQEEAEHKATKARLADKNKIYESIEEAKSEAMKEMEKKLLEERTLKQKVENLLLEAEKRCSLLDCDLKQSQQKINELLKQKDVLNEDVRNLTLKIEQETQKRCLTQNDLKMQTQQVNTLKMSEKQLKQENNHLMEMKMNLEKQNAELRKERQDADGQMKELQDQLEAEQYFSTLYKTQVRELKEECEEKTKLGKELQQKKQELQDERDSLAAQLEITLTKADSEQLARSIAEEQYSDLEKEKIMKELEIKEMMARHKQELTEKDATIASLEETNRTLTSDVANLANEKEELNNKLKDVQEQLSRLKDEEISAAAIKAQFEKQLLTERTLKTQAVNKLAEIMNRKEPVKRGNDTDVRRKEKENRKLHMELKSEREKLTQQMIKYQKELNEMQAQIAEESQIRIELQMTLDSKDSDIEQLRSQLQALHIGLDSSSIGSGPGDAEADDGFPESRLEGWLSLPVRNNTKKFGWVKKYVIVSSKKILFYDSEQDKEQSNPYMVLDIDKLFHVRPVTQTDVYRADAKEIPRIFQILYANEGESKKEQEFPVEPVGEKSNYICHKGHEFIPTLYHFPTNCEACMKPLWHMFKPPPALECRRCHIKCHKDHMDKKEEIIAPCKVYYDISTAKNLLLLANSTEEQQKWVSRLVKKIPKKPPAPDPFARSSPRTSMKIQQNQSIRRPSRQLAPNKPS
From the text: as §1

ERK2 = ERK2 (Homo sapiens, UniProt P28482); assay: Kinase profiling ERK2; conditions: for residual kinase activity, ERK2: 100 micromolar inhibitor concentration, 100 is no change
Chain of ERK2 (P28482 whole entry, species assumed): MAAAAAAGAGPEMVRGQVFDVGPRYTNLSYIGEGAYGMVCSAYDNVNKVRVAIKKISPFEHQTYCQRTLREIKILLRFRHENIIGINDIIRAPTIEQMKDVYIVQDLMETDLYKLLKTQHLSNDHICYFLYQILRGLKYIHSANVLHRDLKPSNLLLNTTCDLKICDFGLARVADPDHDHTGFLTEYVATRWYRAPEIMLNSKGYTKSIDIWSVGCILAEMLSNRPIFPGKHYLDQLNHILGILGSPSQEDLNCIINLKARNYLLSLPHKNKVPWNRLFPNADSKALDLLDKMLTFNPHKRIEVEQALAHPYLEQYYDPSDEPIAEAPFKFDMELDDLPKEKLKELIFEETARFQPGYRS
From the text: as §1

JNK2 = JNK2 (Homo sapiens, UniProt P45984); assay: Kinase profiling JNK2; conditions: for residual kinase activity, JNK2: 100 micromolar inhibitor concentration, 100 is no change
Chain of JNK2 (P45984 whole entry, species assumed): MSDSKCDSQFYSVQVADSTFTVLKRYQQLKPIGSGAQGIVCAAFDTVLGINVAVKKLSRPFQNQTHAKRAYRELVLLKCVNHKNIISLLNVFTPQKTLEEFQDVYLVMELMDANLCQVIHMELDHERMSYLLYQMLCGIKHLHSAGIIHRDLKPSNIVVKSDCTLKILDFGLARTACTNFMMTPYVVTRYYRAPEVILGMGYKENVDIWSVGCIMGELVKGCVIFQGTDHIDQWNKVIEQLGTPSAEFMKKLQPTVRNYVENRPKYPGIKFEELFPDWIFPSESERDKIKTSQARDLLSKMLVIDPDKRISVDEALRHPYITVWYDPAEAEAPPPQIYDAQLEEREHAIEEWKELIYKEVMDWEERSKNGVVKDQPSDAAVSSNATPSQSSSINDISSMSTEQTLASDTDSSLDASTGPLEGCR
From the text: as §1

TAK1 = biological target: T4, TAK1 (Homo sapiens, UniProt O43318); assay: Kinase profiling TAK1; conditions: for residual kinase activity, TAK1: 100 micromolar inhibitor concentration, 100 is no change
T4 sequence (O43318 1-303 limits assumed): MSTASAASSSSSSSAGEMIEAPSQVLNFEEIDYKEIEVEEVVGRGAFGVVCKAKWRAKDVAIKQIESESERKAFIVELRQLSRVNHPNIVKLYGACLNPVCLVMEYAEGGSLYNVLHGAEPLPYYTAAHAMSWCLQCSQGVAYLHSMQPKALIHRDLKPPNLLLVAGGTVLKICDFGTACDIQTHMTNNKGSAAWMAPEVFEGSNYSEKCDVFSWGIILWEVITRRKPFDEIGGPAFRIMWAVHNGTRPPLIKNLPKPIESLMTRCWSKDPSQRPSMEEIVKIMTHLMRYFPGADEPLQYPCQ
T4 sequence (Q15750 437-504 partner limits assumed): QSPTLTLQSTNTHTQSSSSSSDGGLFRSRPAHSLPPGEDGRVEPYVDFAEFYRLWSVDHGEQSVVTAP
From the text: as §1

RSK1 = RSK1 (Homo sapiens, UniProt Q15418); assay: Kinase profiling RSK1; conditions: for residual kinase activity, RSK1: 100 micromolar inhibitor concentration, 100 is no change
Chain of RSK1 (Q15418 whole entry, species assumed): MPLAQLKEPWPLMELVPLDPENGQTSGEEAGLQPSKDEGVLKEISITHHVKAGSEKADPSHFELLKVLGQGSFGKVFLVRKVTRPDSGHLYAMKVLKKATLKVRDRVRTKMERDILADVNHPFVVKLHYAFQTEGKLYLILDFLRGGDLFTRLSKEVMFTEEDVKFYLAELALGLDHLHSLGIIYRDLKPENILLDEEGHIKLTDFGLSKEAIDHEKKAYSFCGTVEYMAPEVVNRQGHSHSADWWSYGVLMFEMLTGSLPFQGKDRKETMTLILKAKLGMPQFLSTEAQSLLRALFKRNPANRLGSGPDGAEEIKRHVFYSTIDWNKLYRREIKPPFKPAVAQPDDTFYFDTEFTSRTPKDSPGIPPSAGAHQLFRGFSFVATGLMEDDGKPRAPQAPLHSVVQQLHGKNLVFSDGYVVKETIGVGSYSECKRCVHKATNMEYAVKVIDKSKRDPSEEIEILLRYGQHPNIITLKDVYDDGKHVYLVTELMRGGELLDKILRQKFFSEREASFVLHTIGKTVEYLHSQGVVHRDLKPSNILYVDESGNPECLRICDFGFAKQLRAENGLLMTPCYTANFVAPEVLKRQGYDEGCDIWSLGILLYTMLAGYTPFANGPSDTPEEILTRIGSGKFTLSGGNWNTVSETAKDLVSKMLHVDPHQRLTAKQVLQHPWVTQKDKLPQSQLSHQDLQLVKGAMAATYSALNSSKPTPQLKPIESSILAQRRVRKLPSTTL
From the text: as §1

[1] = 100 micromolar inhibitor concentration, 100 is no change

SMILES	residual kinase activity, HER4 (HER4)	residual kinase activity, MKK6 (MKK6)	residual kinase activity, NEK6 (NEK6)	residual kinase activity, OSR1 (OSR1)	residual kinase activity, STK33 (STK33)	residual kinase activity, PAK2 (PAK2)	residual kinase activity, PKCγ (PKCγ)	residual kinase activity, PRK2 (PRK2)	residual kinase activity, PKD1 (PKD1)	residual kinase activity, AMPK (AMPK; [1])	residual kinase activity, MST2 (MST2)	residual kinase activity, ROCK 2 (ROCK 2)	residual kinase activity, ERK2 (ERK2)	residual kinase activity, JNK2 (JNK2)	residual kinase activity, TAK1 (TAK1)	residual kinase activity, RSK1 (RSK1)	also measured
CC(=O)Nc1cccc(NC(=O)c2nc3ccc(O)cc3s2)c1 [Compound 03-07, N-(3-acetamidophenyl)-6-hydroxybenzo[d]thiazole-2-carboxamide]																	remaining activity at 100 µM (HER4; 100 micromolar inhibitor, 100 = no change, read-out: residual kinase activity, HER4): 50%; remaining activity at 100 µM (MKK6; 100 micromolar inhibitor, 100 = no change, read-out: residual kinase activity, MKK6): 114%; remaining activity at 100 µM (NEK6; 100 micromolar inhibitor, 100 = no change, read-out: residual kinase activity, NEK6): 91%; remaining activity at 100 µM (OSR1; 100 micromolar inhibitor, 100 = no change, read-out: residual kinase activity, OSR1): 87%; remaining activity at 100 µM (STK33; 100 micromolar inhibitor, 100 = no change, read-out: residual kinase activity, STK33): 63%; remaining activity at 100 µM (PAK2; 100 micromolar inhibitor, 100 = no change, read-out: residual kinase activity, PAK2): 90%; remaining activity at 100 µM (PKCγ; 100 micromolar inhibitor, 100 = no change, read-out: residual kinase activity, PKCγ): 98%; remaining activity at 100 µM (PRK2; 100 micromolar inhibitor, 100 = no change, read-out: residual kinase activity, PRK2): 74%; remaining activity at 100 µM (PKD1; 100 micromolar inhibitor, 100 = no change, read-out: residual kinase activity, PKD1): 61%; residual kinase activity, AMPK (AMPK; 100 micromolar inhibitor, 100 = no change): 76; remaining activity at 100 µM (MST2; 100 micromolar inhibitor, 100 = no change, read-out: residual kinase activity, MST2): 68%; remaining activity at 100 µM (ROCK 2; 100 micromolar inhibitor, 100 = no change, read-out: residual kinase activity, ROCK 2): 27%; remaining activity at 100 µM (ERK2; 100 micromolar inhibitor, 100 = no change, read-out: residual kinase activity, ERK2): 96%; remaining activity at 100 µM (JNK2; 100 micromolar inhibitor, 100 = no change, read-out: residual kinase activity, JNK2): 104%; remaining activity at 100 µM (TAK1; 100 micromolar inhibitor, 100 = no change, read-out: residual kinase activity, TAK1): 53%; remaining activity at 100 µM (RSK1; 100 micromolar inhibitor, 100 = no change, read-out: residual kinase activity, RSK1): 48%
O=C(Nc1nc2cc(O)ccc2s1)c1ccncc1 [Compound 03-11]	96	101	72	90	77	88	101	77	74	84	84	80	85	93	55	83	
O=C(Nc1nc2ccc(O)cc2s1)c1ccccn1 [Compound 03-12]	33	99	98	59	65	104	143	66	70	86	61	68	88	101	33	67	
O=C(Nc1nc2cc(O)ccc2s1)c1ccccn1 [Compound 03-13]	98	105	107	97	71	119	141	97	76	80	60	96	100	103	34	70	

— patent US10231954B2, “Neurodegenerative therapies” (LYTIX BIOPHARMA AS, priority 2014, dated 2019)
